Here are results for 22 compounds from patent US8440708B2, “Triazole-substituted arylamides as P2X3 and P2X2/3 antagonists” (Roche Palo Alto LLC, priority 2007, dated 2013).

Test [1] concerns the target T1, rat P2X3 receptor (Rattus norvegicus, UniProt P49654).
T1 construct: expressed in transfected cells; host or cells: CHO-K1
T1 sequence (P49654 1-397): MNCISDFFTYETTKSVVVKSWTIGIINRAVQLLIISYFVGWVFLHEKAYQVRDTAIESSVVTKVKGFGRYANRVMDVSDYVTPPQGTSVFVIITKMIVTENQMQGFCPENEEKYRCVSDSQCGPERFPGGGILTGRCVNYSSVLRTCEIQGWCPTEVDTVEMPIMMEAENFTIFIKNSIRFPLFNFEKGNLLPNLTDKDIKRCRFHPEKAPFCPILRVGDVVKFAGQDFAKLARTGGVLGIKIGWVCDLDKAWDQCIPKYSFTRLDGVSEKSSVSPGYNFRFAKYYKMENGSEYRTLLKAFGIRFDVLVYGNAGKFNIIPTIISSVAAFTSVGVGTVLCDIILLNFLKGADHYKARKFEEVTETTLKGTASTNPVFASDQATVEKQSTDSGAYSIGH
Description: P2X3/P2X2/3 FLIPR (Fluorometric Imaging Plate Reader) Assay, P2X3. In kind it is cell-based. As to conditions: CHO-K1 cells transfected with rat P2X3; agonist α,β-meATP 1 μM; Table 1; read-out: P2X3 pKi (converted). In short, it runs like this: (§1)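 Read-out: peak Fluo-3 fluorescence (ex 488, em 510-570 nm) after α,β-meATP, 1 μM final on rat P2X3 or 5 μM on human P2X2/3, in transfected CHO-K1 cells. Compounds were preincubated 20 min at RT. Inhibition curves came from nonlinear regression.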

Test [2] addresses T2, human P2X2/3 receptor (Homo sapiens, UniProt P56373+Q9UBL9).
T2 construct: expressed in transfected cells; host or cells: CHO-K1
T2 sequence (Q9UBL9 1-471): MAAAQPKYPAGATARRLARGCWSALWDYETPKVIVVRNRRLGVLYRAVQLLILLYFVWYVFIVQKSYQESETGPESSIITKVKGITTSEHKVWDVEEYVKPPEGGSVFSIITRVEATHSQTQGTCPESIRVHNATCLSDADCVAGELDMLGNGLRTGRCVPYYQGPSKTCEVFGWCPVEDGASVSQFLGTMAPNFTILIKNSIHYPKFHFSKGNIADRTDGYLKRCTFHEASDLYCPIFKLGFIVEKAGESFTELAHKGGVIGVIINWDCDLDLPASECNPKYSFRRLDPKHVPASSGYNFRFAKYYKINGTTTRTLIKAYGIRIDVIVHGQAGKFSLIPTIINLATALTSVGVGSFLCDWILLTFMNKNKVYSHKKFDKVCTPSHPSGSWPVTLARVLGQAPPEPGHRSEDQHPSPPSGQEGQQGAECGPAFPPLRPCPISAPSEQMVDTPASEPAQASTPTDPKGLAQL
T2 sequence (P56373 1-397): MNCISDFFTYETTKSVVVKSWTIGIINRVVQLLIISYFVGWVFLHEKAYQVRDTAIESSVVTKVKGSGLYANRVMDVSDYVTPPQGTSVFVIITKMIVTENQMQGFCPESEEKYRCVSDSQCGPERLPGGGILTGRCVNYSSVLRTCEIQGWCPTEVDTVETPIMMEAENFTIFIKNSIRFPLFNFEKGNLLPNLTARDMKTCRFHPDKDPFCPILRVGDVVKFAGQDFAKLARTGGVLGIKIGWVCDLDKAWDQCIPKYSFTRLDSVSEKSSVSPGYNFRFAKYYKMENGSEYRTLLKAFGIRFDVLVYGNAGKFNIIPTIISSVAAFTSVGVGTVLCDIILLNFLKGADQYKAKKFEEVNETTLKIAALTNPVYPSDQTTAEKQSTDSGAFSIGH
Put plainly: P2X3/P2X2/3 FLIPR (Fluorometric Imaging Plate Reader) Assay, P2X2/3. The conditions noted are these: CHO-K1 cells transfected with human P2X2/3; agonist α,β-meATP 5 μM; Table 1; read-out: P2X2/3 pKi (converted). Type of test: cell-based. The method in brief: as §1

As for `Cc1ccc(-c2cc(C(=O)NCc3cnc(C)cn3)cc(-n3ncnc3C(C)C)c2)nc1` [Compound 132, 3-(5-Isopropyl-[1,2,4]triazol-1-yl)-N-(5-methyl-pyrazin-2-ylmethyl)-5-(5-methyl-pyridin-2-yl)-benzamide], the Ki in test [1] was 3.31 nM; in test [2], 38.9 nM.

Take `Cc1ccc(-c2cc(C(=O)NC(C)c3cnccn3)cc(-n3ncnc3C3CC3)c2)nc1` (centres unmarked) [Compound 60, 3-(5-Cyclopropyl-[1,2,4]triazol-1-yl)-5-(5-methyl-pyridin-2-yl)-N-(1-pyrazin-2-yl-ethyl)-benzamide]: the Ki in test [1] is 19.1 nM; in test [2], 389 nM.

As for `COC[C@@H](C)NC(=O)c1cc(-c2ccc(C)cc2)cc(-n2nncc2C(C)C)c1` [Compound 10, 5-(5-Isopropyl-[1,2,3]triazol-1-yl)-4′-methyl-biphenyl-3-carboxylic acid ((R)-2-methoxy-1-methyl-ethyl)-amide], the Ki in test [1] was 7.41 nM; in test [2], 324 nM.

On to `Cc1ccc(-c2cc(-n3ncnc3C(F)(F)F)cc(C(=O)NCc3cnc(C)nc3)c2F)nc1` [Compound 178, 2-Fluoro-3-(5-methyl-pyridin-2-yl)-N-(2-methyl-pyrimidin-5-ylmethyl)-5-(5-trifluoromethyl-[1,2,4]triazol-1-yl)-benzamide], for which the results for the Ki in test [1] and in test [2] were 3.63 nM and 51.3 nM, respectively.

As to `Cc1ccc(-c2cc(C(=O)NC(C)c3cnccn3)cc(-n3ncnc3C(C)(F)F)c2)nc1` (centres unmarked) [Compound 70, 3-[5-(1,1-Difluoro-ethyl)-[1,2,4]triazol-1-yl]-5-(5-methyl-pyridin-2-yl)-N-(1-pyrazin-2-yl-ethyl)-benzamide], the Ki is 1.91 nM in test [1] and 42.7 nM in test [2].

Consider `Cc1cnc(CNC(=O)c2cc(-c3ccc(Cl)cn3)cc(-n3ncnc3CC(C)C)c2)cn1` [Compound 89, 3-(5-Chloro-pyridin-2-yl)-5-(5-isobutyl-[1,2,4]triazol-1-yl)-N-(5-methyl-pyrazin-2-ylmethyl)-benzamide], for which the Ki is 4.17 nM in test [1] and 89.1 nM in test [2].

In the case of `CCn1cc(-c2cc(C(=O)NC(C)c3cnccn3)cc(-c3ccc(C)cc3)c2)nn1` (centres unmarked) [Compound 41, 5-(1-Ethyl-1H-[1,2,3]triazol-4-yl)-4′-methyl-biphenyl-3-carboxylic acid (1-pyrazin-2-yl-ethyl)-amide], the Ki in test [1] was 182 nM; in test [2], 7410 nM.

As to `Cc1ccc(-c2cc(C(=O)NC(C)c3cnccn3)cc(-n3ncnc3C(C)C)c2)cc1` (centres unmarked) [Compound 18, 5-(5-Isopropyl-[1,2,4]triazol-1-yl)-4′-methyl-biphenyl-3-carboxylic acid (1-pyrazin-2-yl-ethyl)-amide], the results for the Ki in test [1] and in test [2] were 3.09 nM and 24 nM, respectively.

Turning to `Cc1ccc(-c2cc(C(=O)NC(C)CN(C)C)cc(-n3ncnc3C(C)N(C)C)c2)cc1` (centres unmarked) [Compound 103, 5-[5-(1-Dimethylamino-ethyl)-[1,2,4]triazol-1-yl]-4′-methyl-biphenyl-3-carboxylic acid (2-dimethylamino-1-methyl-ethyl)-amide], the Ki in test [1] was 724 nM; in test [2], 10000 nM.

As to `CCOCCc1ncnn1-c1cc(C(=O)NCc2cnc(C)cn2)cc(-c2ccc(C)cn2)c1` [Compound 149, 3-[5-(2-Ethoxy-ethyl)-[1,2,4]triazol-1-yl]-N-(5-methyl-pyrazin-2-ylmethyl)-5-(5-methyl-pyridin-2-yl)-benzamide], the values for the Ki in test [1] and in test [2] were 20 nM and 7240 nM, respectively.

Consider `CCCc1ncnn1-c1cc(C(=O)NC(C)c2cnccn2)cc(-c2ccc(C)cn2)c1` (centres unmarked) [Compound 115, 3-(5-Methyl-pyridin-2-yl)-5-(5-propyl-[1,2,4]triazol-1-yl)-N-(1-pyrazin-2-yl-ethyl)-benzamide], for which the results for the Ki in test [1] and in test [2] were 3.31 nM and 79.4 nM, respectively.

For the compound `Cc1ccc(-c2cc(C(=O)NCc3ccc(=O)n(C)c3)cc(-n3ncnc3C(C)C)c2)nc1` [Compound 153, 3-(5-Isopropyl-[1,2,4]triazol-1-yl)-N-(1-methyl-6-oxo-1,6-dihydro-pyridin-3-ylmethyl)-5-(5-methyl-pyridin-2-yl)-benzamide], the Ki is 26.9 nM in test [1] and 4370 nM in test [2].

On to `Cc1ccc(-c2cc(C(=O)NCc3cnc(C)cn3)cc(-n3ncnc3C(F)(F)F)c2)cc1` [Compound 67, 4′-Methyl-5-(5-trifluoromethyl-[1,2,4]triazol-1-yl)-biphenyl-3-carboxylic acid (5-methyl-pyrazin-2-ylmethyl)-amide], for which the Ki in test [1] was 6.31 nM; in test [2] it was 49 nM.

On to `COCCc1nc(C)nn1-c1cc(C(=O)N[C@@H](C)CO)cc(-c2ccc(C)cn2)c1` [Compound 155, N-((S)-2-Hydroxy-1-methyl-ethyl)-3-[5-(2-methoxy-ethyl)-3-methyl-[1,2,4]triazol-1-yl]-5-(5-methyl-pyridin-2-yl)-benzamide], for which the Ki in test [1] was 3310 nM; in test [2], 10000 nM.

Consider `Cc1ccc(-c2cc(C(=O)NCc3cnc(C)cn3)cc(-n3ncnc3CC(C)(C)O)c2)nc1` [Compound 156, 3-[5-(2-Hydroxy-2-methyl-propyl)-[1,2,4]triazol-1-yl]-N-(5-methyl-pyrazin-2-ylmethyl)-5-(5-methyl-pyridin-2-yl)-benzamide], for which the Ki in test [1] was 123 nM; in test [2], 10000 nM.

For the compound `Cc1ccc(-c2cc(C(=O)NCc3cnc(C)cn3)cc(-n3ncnc3CC(F)F)c2)nc1` [Compound 145, 3-[5-(2,2-Difluoro-ethyl)-[1,2,4]triazol-1-yl]-N-(5-methyl-pyrazin-2-ylmethyl)-5-(5-methyl-pyridin-2-yl)-benzamide], the figures for the Ki in test [1] and in test [2] were 3.31 nM and 107 nM, respectively.

In the case of `Cc1ccc(-c2cc(C(=O)N[C@@H](C)CO)cc(-n3ncnc3C(F)(F)F)c2)nc1` [Compound 97, N-((S)-2-Hydroxy-1-methyl-ethyl)-3-(5-methyl-pyridin-2-yl)-5-(5-trifluoromethyl-[1,2,4]triazol-1-yl)-benzamide], the figures for the Ki in test [1] and in test [2] were 8.13 nM and 4680 nM, respectively.

With `Cc1ccc(-c2cc(-n3ncnc3C(F)(F)F)cc(C(=O)NCc3ccc(C)nn3)c2F)nc1` [Compound 176, 2-Fluoro-N-(6-methyl-pyridazin-3-ylmethyl)-3-(5-methyl-pyridin-2-yl)-5-(5-trifluoromethyl-[1,2,4]triazol-1-yl)-benzamide], the values for the Ki in test [1] and in test [2] were 3.72 nM and 32.4 nM, respectively.

In the case of `Cc1ccc(-c2cc(C(=O)NC(C)c3cnccn3)cc(-n3ncnc3C(C)C)c2)nc1` (centres unmarked) [Compound 56, 3-(5-Isopropyl-[1,2,4]triazol-1-yl)-5-(5-methyl-pyridin-2-yl)-N-(1-pyrazin-2-yl-ethyl)-benzamide], the Ki was 4.57 nM in test [1] and 42.7 nM in test [2].

`CCCc1ncnn1-c1cc(C(=O)NC(C)c2cnccn2)cc(-c2ccc(Cl)cn2)c1` (centres unmarked) [Compound 110, 3-(5-Chloro-pyridin-2-yl)-5-(5-propyl-[1,2,4]triazol-1-yl)-N-(1-pyrazin-2-yl-ethyl)-benzamide]: the values for the Ki in test [1] and in test [2] were 7.24 nM and 355 nM, respectively.

Turning to `Cc1ccc(-c2cc(C(=O)NC(C)c3cnccn3)cc(-n3ncnc3CC(C)C)c2)nc1` (centres unmarked) [Compound 118, 3-(5-Isobutyl-[1,2,4]triazol-1-yl)-5-(5-methyl-pyridin-2-yl)-N-(1-pyrazin-2-yl-ethyl)-benzamide], the Ki in test [1] was 4.27 nM; in test [2] it was 35.5 nM.

Turning to `COC(C)c1ncnn1-c1cc(C(=O)N[C@@H](C)CO)cc(-c2ccc(C)cn2)c1` (some centres unmarked) [Compound 57, N-(2-Hydroxy-1-methyl-ethyl)-3-[5-(1-methoxy-ethyl)-[1,2,4]triazol-1-yl]-5-(5-methyl-pyridin-2-yl)-benzamide], the Ki in test [1] is 74.1 nM; in test [2], 7940 nM.
